According to ChEMBL document CHEMBL1201862, “PubChem BioAssay data set” (2004):
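How tested: cells in 96-well plates exposed to compound for 48 hours at five concentrations. The concentration for 50% growth inhibition is given as GI50.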 Activity calls are given as the source filed them. Cut-off read from the data, not from the text of the source: active = GI50 up to about 1.1 µM and inactive = higher.

Assays:
Assay in all cases: inhibition of tumour cell growth, NCI panel, 48 h
786-0 = test system: 786-0
A498 = test system: A498
A549 = test system: A549
ACHN = test system: ACHN
BT-549 = test system: BT-549
CAKI-1 = test system: CAKI-1
CCRF-CEM = test system: CCRF-CEM
COLO 205 = test system: COLO 205
DLD-1 = test system: DLD-1
DMS-114 = test system: DMS-114
DMS-273 = test system: DMS-273
DU-145 = test system: DU-145
HCC 2998 = test system: HCC 2998
HCT-116 = test system: HCT-116
HCT-15 = test system: HCT-15
HL-60 = test system: HL-60
HOP-18 = test system: HOP-18
HOP-62 = test system: HOP-62
HOP-92 = test system: HOP-92
HT-29 = test system: HT-29
IGROV-1 = test system: IGROV-1
K562 = test system: K562
KM-20L2 = test system: KM-20L2
KM12 = test system: KM12
LOX IMVI = test system: LOX IMVI
LXFL 529 = test system: LXFL 529
M14 = test system: M14
M19-MEL = test system: M19-MEL
MCF7 = test system: MCF7
MDA-MB-231 = test system: MDA-MB-231
MDA-MB-435 = test system: MDA-MB-435
MDA-N = test system: MDA-N
MOLT-4 = test system: MOLT-4
Malme-3M = test system: Malme-3M
NCI-H226 = test system: NCI-H226
NCI-H23 = test system: NCI-H23
NCI-H460 = test system: NCI-H460
NCI-H522 = test system: NCI-H522
NCI/ADR-RES = test system: NCI/ADR-RES
OVCAR-3 = test system: OVCAR-3
OVCAR-4 = test system: OVCAR-4
OVCAR-5 = test system: OVCAR-5
OVCAR-8 = test system: OVCAR-8
RPMI-8226 = test system: RPMI-8226
RXF 393 = test system: RXF 393
RXF 631 = test system: RXF 631
SF-268 = test system: SF-268
SF-295 = test system: SF-295
SF-539 = test system: SF-539
SK-MEL-28 = test system: SK-MEL-28
SK-MEL-2 = test system: SK-MEL-2
SK-MEL-5 = test system: SK-MEL-5
SK-OV-3 = test system: SK-OV-3
SN12C = test system: SN12C
SNB-19 = test system: SNB-19
SNB-75 = test system: SNB-75
SNB-78 = test system: SNB-78
SR = test system: SR
SW-620 = test system: SW-620
T47D = test system: T47D
TK-10 = test system: TK-10
U-251 = test system: U-251
UACC-257 = test system: UACC-257
UACC-62 = test system: UACC-62
UO-31 = test system: UO-31
XF498 = test system: XF498
EKVX = test system: EKVX

O=C1N[C@H]2[C@H](O)[C@H](O)[C@@H](O)[C@H](O)[C@@H]2c2cc3c(c(O)c21)OCO3 [PANCRATISTATIN]
GI50 (786-0): 1580 nM (inactive) | GI50 (A498): 58.3 nM (active) | GI50 (A549): 89.3 nM (active) | GI50 (ACHN): 673 nM (active) | GI50 (BT-549): 49.3 nM (active) | GI50 (CAKI-1): 33.1 nM (active) | GI50 (CCRF-CEM): 32.4 nM (active) | GI50 (COLO 205): 28.8 nM (active) | GI50 (DLD-1): 41.5 nM (active) | GI50 (DMS-114): 41.2 nM (active) | GI50 (DMS-273): 82.6 nM (active) | GI50 (DU-145): 30.6 nM (active) | GI50 (HCC 2998): 40.3 nM (active) | GI50 (HCT-116): 29.7 nM (active) | GI50 (HCT-15): 45 nM | GI50 (HL-60): 36.4 nM (active) | GI50 (HOP-18): 59.8 nM (active) | GI50 (HOP-62): 44.9 nM (active) | GI50 (HOP-92): 31.6 nM (active) | GI50 (HT-29): 43.9 nM (active) | GI50 (IGROV-1): 51.6 nM (active) | GI50 (K562): 37.3 nM (active) | GI50 (KM-20L2): 44.5 nM (active) | GI50 (KM12): 39.3 nM (active) | GI50 (LOX IMVI): 30.7 nM (active) | GI50 (LXFL 529): 541 nM (active) | GI50 (M14): 262 nM (active) | GI50 (M19-MEL): 38.8 nM (active) | GI50 (MCF7): 36.9 nM (active) | GI50 (MDA-MB-231): 34.4 nM (active) | GI50 (MDA-MB-435): 37.2 nM (active) | GI50 (MDA-N): 37.2 nM (active) | GI50 (MOLT-4): 30.9 nM (active) | GI50 (Malme-3M): 35.2 nM (active) | GI50 (NCI-H226): 37.5 nM (active) | GI50 (NCI-H23): 44.5 nM (active) | GI50 (NCI-H460): 45.7 nM (active) | GI50 (NCI-H522): 32.6 nM (active) | GI50 (NCI/ADR-RES): 62.2 nM (active) | GI50 (OVCAR-3): 37.6 nM (active) | GI50 (OVCAR-4): 30.7 nM (active) | GI50 (OVCAR-5): 144 nM (active) | GI50 (OVCAR-8): 33.6 nM (active) | GI50 (RPMI-8226): 77.8 nM (active) | GI50 (RXF 393): 43.4 nM (active) | GI50 (RXF 631): 649 nM (active) | GI50 (SF-268): 39.1 nM (active) | GI50 (SF-295): 46.9 nM (active) | GI50 (SF-539): 37 nM (active) | GI50 (SK-MEL-28): 41.4 nM (active) | GI50 (SK-MEL-2): 33.6 nM (active) | GI50 (SK-MEL-5): 27.2 nM (active) | GI50 (SK-OV-3): 48.3 nM (active) | GI50 (SN12C): 36.5 nM (active) | GI50 (SNB-19): 30.1 nM (active) | GI50 (SNB-75): 30.1 nM (active) | GI50 (SNB-78): 45.2 nM (active) | GI50 (SR): 106 nM (active) | GI50 (SW-620): 38.6 nM (active) | GI50 (T47D): 28.8 nM (active) | GI50 (TK-10): 650 nM (active) | GI50 (U-251): 33.9 nM (active) | GI50 (UACC-257): 42.9 nM (active) | GI50 (UACC-62): 43.6 nM (active) | GI50 (UO-31): 87.5 nM (active) | GI50 (XF498): 23.7 nM (active)

C=C(CN(C)C)C(=O)c1ccccc1C
GI50 (786-0): 16900 nM (inactive) | GI50 (A498): > 100000 nM (inactive) | GI50 (A549): > 100000 nM (inactive) | GI50 (ACHN): 24700 nM (inactive) | GI50 (CAKI-1): 27500 nM (inactive) | GI50 (CCRF-CEM): 7850 nM (inactive) | GI50 (COLO 205): 15500 nM (inactive) | GI50 (DLD-1): 20900 nM (inactive) | GI50 (DMS-114): 21200 nM (inactive) | GI50 (DMS-273): 24500 nM (inactive) | GI50 (DU-145): > 100000 nM (inactive) | GI50 (EKVX): > 100000 nM (inactive) | GI50 (HCC 2998): > 100000 nM (inactive) | GI50 (HCT-116): 24800 nM (inactive) | GI50 (HCT-15): 24900 nM | GI50 (HL-60): 5520 nM (inactive) | GI50 (HOP-18): 22900 nM (inactive) | GI50 (HOP-62): > 100000 nM (inactive) | GI50 (HOP-92): 17700 nM (inactive) | GI50 (HT-29): > 100000 nM (inactive) | GI50 (IGROV-1): > 100000 nM (inactive) | GI50 (K562): 15700 nM (inactive) | GI50 (KM-20L2): > 67100 nM (inactive) | GI50 (KM12): > 100000 nM (inactive) | GI50 (LOX IMVI): > 69500 nM (inactive) | GI50 (LXFL 529): 15700 nM (inactive) | GI50 (M14): 18100 nM (inactive) | GI50 (M19-MEL): 23400 nM (inactive) | GI50 (MOLT-4): 7520 nM (inactive) | GI50 (Malme-3M): 17900 nM (inactive) | GI50 (NCI-H226): > 100000 nM (inactive) | GI50 (NCI-H23): > 100000 nM (inactive) | GI50 (NCI-H460): > 100000 nM (inactive) | GI50 (NCI-H522): 5690 nM (inactive) | GI50 (OVCAR-3): 33100 nM (inactive) | GI50 (OVCAR-4): > 57900 nM (inactive) | GI50 (OVCAR-5): > 100000 nM (inactive) | GI50 (OVCAR-8): > 100000 nM (inactive) | GI50 (RPMI-8226): 15700 nM (inactive) | GI50 (RXF 393): 12900 nM (inactive) | GI50 (RXF 631): > 100000 nM (inactive) | GI50 (SF-268): 77100 nM (inactive) | GI50 (SF-295): > 100000 nM (inactive) | GI50 (SF-539): > 40400 nM (inactive) | GI50 (SK-MEL-28): 9890 nM (inactive) | GI50 (SK-MEL-2): > 100000 nM (inactive) | GI50 (SK-MEL-5): > 86500 nM (inactive) | GI50 (SK-OV-3): > 100000 nM (inactive) | GI50 (SN12C): 46900 nM (inactive) | GI50 (SNB-19): > 100000 nM (inactive) | GI50 (SNB-75): > 71600 nM (inactive) | GI50 (SNB-78): > 100000 nM (inactive) | GI50 (SR): 14200 nM (inactive) | GI50 (SW-620): 16100 nM (inactive) | GI50 (TK-10): > 74600 nM (inactive) | GI50 (U-251): > 100000 nM (inactive) | GI50 (UACC-257): > 55700 nM (inactive) | GI50 (UACC-62): 28200 nM (inactive) | GI50 (UO-31): 37400 nM (inactive) | GI50 (XF498): > 50900 nM (inactive)
